Patent US8940736B2, “Imidazotriazinecarbonitriles useful as kinase inhibitors” (Bristol-Myers Squibb Company, priority 2012, dated 2015)

Key:
recombinant CK2A1 = recombinant CK2A1 (Homo sapiens (Human), UniProt P68400); assay: CK2 kinase assay (CK2A1); type: biochemical; conditions: Table B, comparison compound of WO 2007/038314 / US 2008/0045536
recombinant CK2A2 = recombinant CK2A2 (Homo sapiens (Human), UniProt P19784); assay: CK2 kinase assay (CK2A2); type: biochemical; conditions: Table B, comparison compound of WO 2007/038314 / US 2008/0045536
Sequence of recombinant CK2A2 (P19784 whole entry): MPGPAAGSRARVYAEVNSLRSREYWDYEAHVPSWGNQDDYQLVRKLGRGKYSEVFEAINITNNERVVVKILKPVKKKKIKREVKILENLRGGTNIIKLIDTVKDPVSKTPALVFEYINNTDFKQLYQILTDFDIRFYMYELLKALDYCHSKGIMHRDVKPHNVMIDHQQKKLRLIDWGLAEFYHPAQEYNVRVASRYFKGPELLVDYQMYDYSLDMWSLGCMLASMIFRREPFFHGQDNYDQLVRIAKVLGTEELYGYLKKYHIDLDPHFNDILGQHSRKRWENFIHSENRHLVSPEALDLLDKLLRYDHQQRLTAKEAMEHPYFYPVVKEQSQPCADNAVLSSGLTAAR

Sequence of recombinant CK2A1 (P68400 whole entry): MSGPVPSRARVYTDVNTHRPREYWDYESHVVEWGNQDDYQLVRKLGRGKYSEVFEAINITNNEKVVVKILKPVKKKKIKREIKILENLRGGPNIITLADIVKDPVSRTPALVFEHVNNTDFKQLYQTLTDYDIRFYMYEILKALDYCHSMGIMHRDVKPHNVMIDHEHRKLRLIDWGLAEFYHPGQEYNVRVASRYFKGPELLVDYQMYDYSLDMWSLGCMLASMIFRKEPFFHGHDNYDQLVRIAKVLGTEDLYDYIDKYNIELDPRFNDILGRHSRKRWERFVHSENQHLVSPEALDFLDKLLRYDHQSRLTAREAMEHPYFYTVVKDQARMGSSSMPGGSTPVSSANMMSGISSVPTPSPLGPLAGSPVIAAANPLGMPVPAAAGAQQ

- IC50 (recombinant CK2A1): 1800 nM
- IC50 (recombinant CK2A2): 331 nM
SMILES: CCOc1ccc(Nc2nc(N[C@H]3CC[C@@H](N)CC3)nn3ccnc23)cc1 [XIII]
